The results in this text go back to patent US7205326B2, “Aniline derivatives, their manufacture and use as pharmaceutical agents” (Hoffmann-La Roche Inc., priority 2003, dated 2007).

The melting point is the temperature of the solid-liquid transition. The term IC50 denotes the concentration that gives 50% inhibition.

Tested on in the first data set: not given
Test: not given
Conditions: not given
With `C(=Cc1nc(CNc2ccc(CCCCn3ccnn3)cc2)co1)c1ccc2c(c1)OCO2` [Example 6, [2-(2-Benzo[1,3]dioxol-5-yl-vinyl)-oxazol-4-ylmethyl]-[4-(4-[1,2,3]triazol-1-yl-butyl)-phenyl]-amine], the melting point lay in the range of 130 to 131 °C.

Regarding `FC(F)(F)c1ccc(C=Cc2nc(CNc3ccc(OCCCn4ccnn4)cc3)co2)cc1` [Example 9, [4-(3-[1,2,3]Triazol-1-yl-propoxy)-phenyl]-{2-[2-(4-trifluoromethyl-phenyl)-vinyl]-oxazol-4-ylmethyl}-amine], the melting point lay within 134 to 136 °C.

`CN(C(=O)c1coc(C=Cc2ccc(C(F)(F)F)cc2)n1)c1ccc(CCCCn2ccnn2)cc1` [Example 12, 2-[2-(4-Trifluoromethyl-phenyl)-vinyl]-oxazole-4-carboxylic acid methyl-[4-(4-[1,2,3]triazol-1-yl-butyl)-phenyl]-amide] gave a melting point of 127 to 129 °C.

`FC(F)Oc1ccc(C=Cc2nc(CNc3ccc(CCCCn4ccnn4)cc3)co2)cc1` [Example 4, {2-[2-(4-Difluoromethoxy-phenyl)-vinyl]-oxazol-4-ylmethyl}-[4-(4-[1,2,3]triazol-1-yl-butyl)-phenyl]-amine] displayed a melting point of 101 to 102 °C.

In a further data set the test system is HCT116 cells. Description: HCT116 cell proliferation MTT assay. Format: cell-based. Particulars: HCT-116; HCT116 human colon carcinoma cells, MTT assay after 5 days (120 h) incubation, compound 3 uM to 0.15 nM. On the procedure:
HCT116 cells (human colon carcinoma cell line) were cultivated in RPMI 1640, 2.5% FCS, 2 mM Glutamine, 100 u/ml Penicillin, 100 ug/ml Streptomycin. For the assay the cells were seeded in 384 well plates, 1000 cells per well, in the same medium
The next day compounds (dissolved 10 mM in DMSO) were added in various concentrations ranging from 3 uM to 0.15 nM. After 5 days the MTT assay was done mainly according to the instructions of the manufacturer (Cell proliferation kit I, MTT, from Roche Molecular Biochemicals). In brief: MTT labeling reagent was added to a final concentration of 0.5 mg/ml, added and incubated for 4 hrs at 37° C., 5% CO2. During this incubation time purple formazan crystals are formed. After addition of the solubilization solution (20% SDS in 0.02 M HCl) the plates were incubated overnight at 37° C., 5% CO2. After careful mixing plates were measured in Victor 2 (scanning multiwell spectrophotometer, Wallac) at 550 nm.
A decrease in number of living cells results in a decrease in the total metabolic activity in the sample. The decrease directly correlates to the amount of purple color resulting from the solubilization of the purple formazan crystals.
Materials: • HCT116 1000 cells in 60 ul per well of 384 well plate (Greiner) • Medium: RPMI 1640, 2.5% FCS, glutamine, pen/strep. • Incubate 1 day at 37° C.
Induction: • Dilution of compound in DMSO: 3 ul 10 mM+27 ul DMSO, dilute 1:3 • Add 2 ul of compound dilution row to 95 ul of medium • Add 10 ul of compound dilution to 60 ul medium in test plate results in 0.3% DMSO per well • Incubate 120 h (5 days) at 37° C., 5% CO2
Analysis: • Add 7 ul MTT ([…]), incubate 4 h at 37° C. • Add 30 ul lysis buffer (20% SDS, 0.04N HCl) per well • Incubate overnight at 37° C.
Measurement: • Victor 2 (scanning multiwell spectrophotometer, Wallac), at 550 nm • Determination of IC50 was done using XL-fit.
(Formazan colour is commonly taken as a measure of viable cells.)
The molecule `CN(Cc1coc(C=Cc2ccc(Cl)cc2)n1)c1ccc(CCCCn2ccnn2)cc1` [Example 15, {2-[2-(4-Chloro-phenyl)-vinyl]-oxazol-4-ylmethyl}-methyl-[4-(4-[1,2,3]triazol-1-yl-butyl)-phenyl]-amine] returned an IC50 of over 40 nM.

`CN(C(=O)c1coc(C=Cc2ccc(OC(F)F)cc2)n1)c1ccc(CCCCn2ccnn2)cc1` [Example 32, 2-[2-(4-Difluoromethoxy-phenyl)-vinyl]-oxazole-4-carboxylic acid methyl-[4-(4-[1,2,3]-triazol-1-yl-butyl)-phenyl]-amide] returned an IC50 of over 40 nM.

With `C(=Cc1nc(CNc2ccc(CCCCn3ccnn3)cc2)co1)c1ccc2c(c1)OCO2` [Example 6, [2-(2-Benzo[1,3]dioxol-5-yl-vinyl)-oxazol-4-ylmethyl]-[4-(4-[1,2,3]triazol-1-yl-butyl)-phenyl]-amine], the IC50 is over 40 nM.

Regarding `CN(C(=O)c1coc(C=Cc2ccc(OC(F)(F)F)cc2)n1)c1ccc(CCCCn2ccnn2)cc1` [Example 22, 2-[2-(4-Trifluoromethoxy-phenyl)-vinyl]-oxazole-4-carboxylic acid methyl-[4-(4-[1,2,3]triazol-1-yl-butyl)-phenyl]-amide], the IC50 is over 40 nM.

The molecule `FC(F)(F)c1ccc(C=Cc2nc(CNc3ccc(OCCCn4ccnn4)cc3)co2)cc1` [Example 9, [4-(3-[1,2,3]Triazol-1-yl-propoxy)-phenyl]-{2-[2-(4-trifluoromethyl-phenyl)-vinyl]-oxazol-4-ylmethyl}-amine] showed an IC50 of under 20 nM.

Molecule `O=C(Nc1ccc(OCCCn2ccnn2)cc1)c1coc(C=Cc2ccc(C(F)(F)F)cc2)n1` [Example 19, 2-[2-(4-Trifluoromethyl-phenyl)-vinyl]-oxazole-4-carboxylic acid [4-(3-[1,2,3]triazol-1-yl-propoxy)-phenyl]-amide] displayed an IC50 of over 40 nM.

The molecule `Fc1cc(Cl)ccc1C=Cc1nc(CNc2ccc(CCCCn3ccnn3)cc2)co1` [Example 35, {2-[2-(4-Chloro-2-fluoro-phenyl)-vinyl]-oxazol-4-ylmethyl}-[4-(4-[1,2,3]triazol-1-yl-butyl)-phenyl]-amine] registered an IC50 of over 40 nM.

`FC(F)(F)Oc1ccc(C=Cc2nc(CNc3ccc(COCCn4ccnn4)cc3)co2)cc1` [Example 36, [4-(2-[1,2,3]Triazol-1-yl-ethoxymethyl)-phenyl]-{2-[2-(4-trifluoromethoxy-phenyl)-vinyl]-oxazol-4-ylmethyl}-amine] displayed an IC50 of under 20 nM.

For the molecule `CN(C(=O)c1coc(C=Cc2ccc(C(F)(F)F)cc2)n1)c1ccc(CCCCn2ccnn2)cc1` [Example 12, 2-[2-(4-Trifluoromethyl-phenyl)-vinyl]-oxazole-4-carboxylic acid methyl-[4-(4-[1,2,3]triazol-1-yl-butyl)-phenyl]-amide], the IC50 fell in the range of 20 to 40 nM.

Regarding `CN(Cc1coc(C=Cc2ccc3c(c2)OCO3)n1)c1ccc(CCCCn2ccnn2)cc1` [Example 13, [2-(2-Benzo[1,3]dioxol-5-yl-vinyl)-oxazol-4-ylmethyl]-methyl-[4-(4-[1,2,3]triazol-1-yl-butyl)-phenyl]-amine], the IC50 is over 40 nM.

For the molecule `FC(F)Oc1ccc(C=Cc2nc(CNc3ccc(CCCCn4ccnn4)cc3)co2)cc1` [Example 4, {2-[2-(4-Difluoromethoxy-phenyl)-vinyl]-oxazol-4-ylmethyl}-[4-(4-[1,2,3]triazol-1-yl-butyl)-phenyl]-amine], the IC50 was over 40 nM.

In turn, `FC(F)(F)Oc1ccc(C=Cc2nc(CNc3ccc(OCCCn4ccnn4)cc3)co2)cc1` [Example 16, [4-(3-[1,2,3]Triazol-1-yl-propoxy)-phenyl]-{2-[2-(4-trifluoromethoxy-phenyl)-vinyl]-oxazol-4-ylmethyl}-amine] displayed a 50% inhibitory concentration (IC50) of over 40 nM.

Turning to `FC(F)(F)Sc1ccc(C=Cc2nc(CNc3ccc(OCCCn4ccnn4)cc3)co2)cc1` [Example 17, [4-(3-[1,2,3]Triazol-1-yl-propoxy)-phenyl]-{2-[2-(4-trifluoromethylsulfanyl-phenyl)-vinyl]-oxazol-4-ylmethyl}-amine], the IC50 is over 40 nM.

`FC(F)(F)c1cccc(C=Cc2nc(CNc3ccc(CCCCn4ccnn4)cc3)co2)c1` [Example 26, [4-(4-[1,2,3]Triazol-1-yl-butyl)-phenyl]-{2-[2-(3-trifluoromethyl-phenyl)-vinyl]-oxazol-4-ylmethyl}-amine] gave an IC50 of over 40 nM.

`Fc1ccc(C=Cc2nc(CNc3ccc(CCCCn4ccnn4)cc3)co2)c(F)c1` [Example 34, {2-[2-(2,4-Difluoro-phenyl)-vinyl]-oxazol-4-ylmethyl}-[4-(4-[1,2,3]triazol-1-yl-butyl)-phenyl]-amine] came in with an IC50 of under 20 nM.

For `O=C(Nc1ccc(CCCCn2ccnn2)cc1)c1coc(C=Cc2ccc(OC(F)(F)F)cc2)n1` [Example 21, 2-[2-(4-Trifluoromethoxy-phenyl)-vinyl]-oxazole-4-carboxylic acid [4-(4-[1,2,3]triazol-1-yl-butyl)-phenyl]-amide], the IC50 was over 40 nM.

In turn, `FC(F)(F)c1ccc(C=Cc2nc(CNc3ccc(COCCn4ccnn4)cc3)co2)cc1` [Example 37, [4-(2-[1,2,3]Triazol-1-yl-ethoxymethyl)-phenyl]-{2-[2-(4-trifluoromethyl-phenyl)-vinyl]-oxazol-4-ylmethyl}-amine] gave an IC50 of 20 to 40 nM.

Take `CN(C(=O)c1coc(C=Cc2ccc(OC(F)(F)F)cc2)n1)c1ccc(OCCCn2ccnn2)cc1` [Example 23, 2-[2-(4-Trifluoromethoxy-phenyl)-vinyl]-oxazole-4-carboxylic acid methyl-[4-(3-[1,2,3]triazol-1-yl-propoxy)-phenyl]-amide]: the IC50 is over 40 nM.

Take `CN(Cc1coc(C=Cc2ccc(SC(F)(F)F)cc2)n1)c1ccc(CCCCn2ccnn2)cc1` [Example 14, Methyl-[4-(4-[1,2,3]triazol-1-yl-butyl)-phenyl]-{2-[2-(4-trifluoromethylsulfanyl-phenyl)-vinyl]-oxazol-4-ylmethyl}-amine]: the IC50 was under 20 nM.

As to `O=C(Nc1ccc(OCCCn2ccnn2)cc1)c1coc(C=Cc2ccc(OC(F)(F)F)cc2)n1` [Example 20, 2-[2-(4-Trifluoromethoxy-phenyl)-vinyl]-oxazole-4-carboxylic acid [4-(3-[1,2,3]triazol-1-yl-propoxy)-phenyl]-amide], the IC50 was over 40 nM.

For `Clc1ccc(C=Cc2nc(CNc3ccc(OCCCn4ccnn4)cc3)co2)cc1` [Example 18, {2-[2-(4-Chloro-phenyl)-vinyl]-oxazol-4-ylmethyl}-[4-(3-[1,2,3]triazol-1-yl-propoxy)-phenyl]-amine], the IC50 is over 40 nM.

`O=C(Nc1ccc(CCCCn2ccnn2)cc1)c1coc(C=Cc2ccc3c(c2)OC(F)(F)O3)n1` [Example 29, 2-[2-(2,2-Difluoro-benzo [1,3]dioxol-5-yl)-vinyl]-oxazole-4-carboxylic acid [4-(4-[1,2,3]triazol-1-yl-butyl)-phenyl]-amide] showed an IC50 of under 20 nM.

`O=C(Nc1ccc(CCCCn2ccnn2)cc1)c1coc(C=Cc2ccc(OC(F)F)cc2)n1` [Example 31, 2-[2-(4-Difluoromethoxy-phenyl)-vinyl]-oxazole-4-carboxylic acid-[4-(4-[1,2,3]triazol-1-yl-butyl)-phenyl]-amide] yielded an IC50 of under 20 nM.
